Source: ChEMBL document CHEMBL5442219

How the values were obtained:
Settings in all cases: Compound concentration 10 µM
[1] = biological target: Histamine H3 receptor (Homo sapiens) (UniProt Q9Y5N1)
[2] = biological target: Histamine H2 receptor (Homo sapiens) (UniProt P25021)
[3] = biological target: Sodium-dependent serotonin transporter (Homo sapiens) (UniProt P31645)
[4] = biological target: 5-hydroxytryptamine receptor 7 (Homo sapiens) (UniProt P34969)
[5] = biological target: D(2) dopamine receptor (Homo sapiens) (UniProt P14416)
[6] = biological target: T1, Muscarinic acetylcholine receptor M4 (Homo sapiens) (UniProt P08173)
T1 sequence (whole entry): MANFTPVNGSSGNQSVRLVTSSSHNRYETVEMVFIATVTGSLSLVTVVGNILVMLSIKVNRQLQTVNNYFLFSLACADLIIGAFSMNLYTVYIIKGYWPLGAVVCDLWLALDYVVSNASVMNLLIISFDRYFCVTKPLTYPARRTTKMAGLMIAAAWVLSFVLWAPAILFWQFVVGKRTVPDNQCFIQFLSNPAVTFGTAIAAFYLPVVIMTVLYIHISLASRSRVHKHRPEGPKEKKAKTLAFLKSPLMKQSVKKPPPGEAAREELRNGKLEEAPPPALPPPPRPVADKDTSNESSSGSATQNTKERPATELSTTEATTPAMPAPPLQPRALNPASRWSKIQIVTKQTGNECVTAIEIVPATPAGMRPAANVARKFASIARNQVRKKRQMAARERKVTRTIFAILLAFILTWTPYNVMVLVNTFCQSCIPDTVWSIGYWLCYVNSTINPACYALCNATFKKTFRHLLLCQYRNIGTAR

[7] = biological target: Sigma non-opioid intracellular receptor 1 (Homo sapiens) (UniProt Q99720)
[8] = biological target: T2, 5-hydroxytryptamine receptor 2C (Homo sapiens) (UniProt P28335)
T2 sequence (whole entry): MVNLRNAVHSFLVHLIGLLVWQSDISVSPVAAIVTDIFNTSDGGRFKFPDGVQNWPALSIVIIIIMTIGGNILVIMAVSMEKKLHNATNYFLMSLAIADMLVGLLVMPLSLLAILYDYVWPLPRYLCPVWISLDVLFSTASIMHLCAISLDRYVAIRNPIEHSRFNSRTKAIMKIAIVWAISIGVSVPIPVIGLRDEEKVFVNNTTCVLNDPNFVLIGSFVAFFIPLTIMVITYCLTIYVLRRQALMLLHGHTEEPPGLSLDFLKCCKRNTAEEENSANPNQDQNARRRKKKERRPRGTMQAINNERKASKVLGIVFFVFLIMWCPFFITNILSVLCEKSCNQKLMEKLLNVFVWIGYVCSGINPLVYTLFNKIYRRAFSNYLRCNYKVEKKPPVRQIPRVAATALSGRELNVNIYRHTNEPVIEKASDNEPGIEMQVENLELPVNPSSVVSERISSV

[9] = biological target: Sodium-dependent dopamine transporter (Homo sapiens) (UniProt Q01959)
[10] = biological target: 5-hydroxytryptamine receptor 1B (Homo sapiens) (UniProt P28222)
[11] = biological target: T3, Alpha-2C adrenergic receptor (Homo sapiens) (UniProt P18825)
T3 sequence (whole entry): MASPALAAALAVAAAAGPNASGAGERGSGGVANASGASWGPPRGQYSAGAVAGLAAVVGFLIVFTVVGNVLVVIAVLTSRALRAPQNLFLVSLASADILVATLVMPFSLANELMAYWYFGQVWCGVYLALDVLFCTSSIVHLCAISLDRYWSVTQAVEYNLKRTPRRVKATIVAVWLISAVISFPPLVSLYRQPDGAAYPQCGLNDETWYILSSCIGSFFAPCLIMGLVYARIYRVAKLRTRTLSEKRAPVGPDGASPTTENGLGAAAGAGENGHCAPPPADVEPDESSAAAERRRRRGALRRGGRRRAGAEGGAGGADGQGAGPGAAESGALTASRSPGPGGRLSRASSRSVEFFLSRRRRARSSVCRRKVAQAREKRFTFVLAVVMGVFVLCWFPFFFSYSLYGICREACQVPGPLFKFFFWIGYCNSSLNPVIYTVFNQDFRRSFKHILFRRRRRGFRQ

[12] = biological target: T4, D(4) dopamine receptor (Homo sapiens) (UniProt P21917)
T4 sequence (whole entry): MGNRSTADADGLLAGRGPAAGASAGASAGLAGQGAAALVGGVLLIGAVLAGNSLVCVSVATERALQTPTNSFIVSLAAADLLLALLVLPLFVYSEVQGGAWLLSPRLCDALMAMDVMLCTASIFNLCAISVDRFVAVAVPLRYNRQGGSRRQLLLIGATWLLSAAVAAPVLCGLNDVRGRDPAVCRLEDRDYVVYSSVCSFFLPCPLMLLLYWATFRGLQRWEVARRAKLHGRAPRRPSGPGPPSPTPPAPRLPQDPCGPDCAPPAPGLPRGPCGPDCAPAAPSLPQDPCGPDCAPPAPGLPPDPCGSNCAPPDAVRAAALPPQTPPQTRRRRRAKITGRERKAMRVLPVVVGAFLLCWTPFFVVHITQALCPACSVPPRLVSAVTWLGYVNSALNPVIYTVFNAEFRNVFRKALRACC

[13] = biological target: Histamine H4 receptor (Homo sapiens) (UniProt Q9H3N8)
[14] = biological target: Sodium-dependent noradrenaline transporter (Homo sapiens) (UniProt P23975)
[15] = biological target: T5, Alpha-2B adrenergic receptor (Homo sapiens) (UniProt P18089)
T5 sequence (whole entry): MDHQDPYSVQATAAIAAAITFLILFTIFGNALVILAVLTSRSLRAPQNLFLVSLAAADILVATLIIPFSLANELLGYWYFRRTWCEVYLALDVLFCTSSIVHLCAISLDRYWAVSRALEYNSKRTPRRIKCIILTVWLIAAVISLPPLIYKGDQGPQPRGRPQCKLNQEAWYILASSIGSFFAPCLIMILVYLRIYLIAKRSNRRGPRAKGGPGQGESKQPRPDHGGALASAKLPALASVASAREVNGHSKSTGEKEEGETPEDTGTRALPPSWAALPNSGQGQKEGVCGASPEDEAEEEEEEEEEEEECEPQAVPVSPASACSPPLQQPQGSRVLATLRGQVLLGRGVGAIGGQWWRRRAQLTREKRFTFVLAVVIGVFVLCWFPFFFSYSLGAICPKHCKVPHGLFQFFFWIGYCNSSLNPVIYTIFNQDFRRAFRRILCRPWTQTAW

Histamine H4 receptor (Homo sapiens), sequence (Q9H3N8 whole entry): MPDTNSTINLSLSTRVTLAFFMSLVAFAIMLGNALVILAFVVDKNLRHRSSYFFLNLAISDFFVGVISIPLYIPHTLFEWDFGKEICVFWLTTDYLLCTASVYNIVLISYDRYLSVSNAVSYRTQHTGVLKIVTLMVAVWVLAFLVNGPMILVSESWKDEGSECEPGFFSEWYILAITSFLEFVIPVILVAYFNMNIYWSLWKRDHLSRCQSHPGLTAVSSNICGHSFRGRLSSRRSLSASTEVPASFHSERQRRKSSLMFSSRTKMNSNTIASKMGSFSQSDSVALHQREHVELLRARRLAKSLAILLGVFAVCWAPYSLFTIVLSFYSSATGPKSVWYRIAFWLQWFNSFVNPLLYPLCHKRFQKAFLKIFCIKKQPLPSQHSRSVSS
Sigma non-opioid intracellular receptor 1 (Homo sapiens), sequence (Q99720 whole entry): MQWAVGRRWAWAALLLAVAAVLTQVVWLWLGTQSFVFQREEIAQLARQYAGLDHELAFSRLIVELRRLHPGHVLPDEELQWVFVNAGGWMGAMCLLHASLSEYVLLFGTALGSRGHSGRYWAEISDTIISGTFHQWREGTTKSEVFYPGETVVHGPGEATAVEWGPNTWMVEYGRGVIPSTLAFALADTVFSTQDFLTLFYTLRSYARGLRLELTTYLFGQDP
5-hydroxytryptamine receptor 7 (Homo sapiens), sequence (P34969 whole entry): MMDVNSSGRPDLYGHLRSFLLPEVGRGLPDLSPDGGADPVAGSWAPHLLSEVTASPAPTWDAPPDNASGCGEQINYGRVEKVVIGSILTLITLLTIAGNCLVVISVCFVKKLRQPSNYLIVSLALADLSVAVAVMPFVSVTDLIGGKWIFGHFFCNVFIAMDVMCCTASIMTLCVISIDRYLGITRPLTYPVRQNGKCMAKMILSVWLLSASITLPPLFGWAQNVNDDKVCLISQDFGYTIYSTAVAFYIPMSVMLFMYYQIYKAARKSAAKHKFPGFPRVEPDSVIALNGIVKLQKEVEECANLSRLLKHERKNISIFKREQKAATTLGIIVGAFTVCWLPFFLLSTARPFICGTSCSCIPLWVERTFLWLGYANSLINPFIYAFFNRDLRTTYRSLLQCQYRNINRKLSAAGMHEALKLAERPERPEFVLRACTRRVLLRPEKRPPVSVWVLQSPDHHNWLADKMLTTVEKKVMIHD
Sodium-dependent dopamine transporter (Homo sapiens), sequence (Q01959 whole entry): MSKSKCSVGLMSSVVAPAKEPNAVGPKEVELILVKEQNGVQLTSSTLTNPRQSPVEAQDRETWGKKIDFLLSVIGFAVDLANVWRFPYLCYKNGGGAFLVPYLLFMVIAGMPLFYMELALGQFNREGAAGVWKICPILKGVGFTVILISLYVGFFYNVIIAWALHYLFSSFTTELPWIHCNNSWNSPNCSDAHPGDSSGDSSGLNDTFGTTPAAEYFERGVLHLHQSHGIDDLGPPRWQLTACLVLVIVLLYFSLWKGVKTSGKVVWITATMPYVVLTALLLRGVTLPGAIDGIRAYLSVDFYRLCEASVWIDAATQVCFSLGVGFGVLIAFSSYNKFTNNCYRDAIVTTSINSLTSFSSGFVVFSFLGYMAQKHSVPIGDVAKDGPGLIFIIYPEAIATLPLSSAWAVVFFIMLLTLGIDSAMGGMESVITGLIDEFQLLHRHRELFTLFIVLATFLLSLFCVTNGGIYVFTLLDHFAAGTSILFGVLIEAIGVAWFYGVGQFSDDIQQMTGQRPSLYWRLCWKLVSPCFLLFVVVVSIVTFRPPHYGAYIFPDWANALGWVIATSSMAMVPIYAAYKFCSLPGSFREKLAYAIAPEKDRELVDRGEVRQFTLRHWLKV
Histamine H2 receptor (Homo sapiens), sequence (P25021 whole entry): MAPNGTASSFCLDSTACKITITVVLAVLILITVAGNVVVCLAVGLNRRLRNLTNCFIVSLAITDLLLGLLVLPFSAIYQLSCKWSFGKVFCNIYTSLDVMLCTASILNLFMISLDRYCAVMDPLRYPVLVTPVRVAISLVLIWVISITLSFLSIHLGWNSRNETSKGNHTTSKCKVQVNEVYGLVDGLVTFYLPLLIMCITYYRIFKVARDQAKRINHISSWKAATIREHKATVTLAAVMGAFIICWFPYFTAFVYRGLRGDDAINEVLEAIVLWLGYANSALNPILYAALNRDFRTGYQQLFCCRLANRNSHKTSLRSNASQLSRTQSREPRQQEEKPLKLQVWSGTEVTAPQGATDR
Sodium-dependent serotonin transporter (Homo sapiens), sequence (P31645 whole entry, looked up): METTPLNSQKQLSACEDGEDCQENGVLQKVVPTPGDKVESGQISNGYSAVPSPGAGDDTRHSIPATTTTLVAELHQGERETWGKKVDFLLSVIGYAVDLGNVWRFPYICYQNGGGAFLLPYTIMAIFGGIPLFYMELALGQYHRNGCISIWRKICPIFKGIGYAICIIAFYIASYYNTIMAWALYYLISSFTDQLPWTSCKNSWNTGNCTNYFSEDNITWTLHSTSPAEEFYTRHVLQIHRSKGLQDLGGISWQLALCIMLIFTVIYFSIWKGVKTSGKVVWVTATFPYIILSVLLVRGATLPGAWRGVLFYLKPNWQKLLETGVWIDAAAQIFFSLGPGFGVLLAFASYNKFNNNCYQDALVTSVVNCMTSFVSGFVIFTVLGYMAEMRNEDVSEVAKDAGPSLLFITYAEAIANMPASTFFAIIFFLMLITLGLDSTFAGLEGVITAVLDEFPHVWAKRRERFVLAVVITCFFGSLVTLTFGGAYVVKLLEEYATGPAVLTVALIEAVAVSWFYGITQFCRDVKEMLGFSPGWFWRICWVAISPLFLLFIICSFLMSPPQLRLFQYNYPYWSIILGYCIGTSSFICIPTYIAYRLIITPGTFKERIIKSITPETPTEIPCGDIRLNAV
Sodium-dependent noradrenaline transporter (Homo sapiens), sequence (P23975 whole entry): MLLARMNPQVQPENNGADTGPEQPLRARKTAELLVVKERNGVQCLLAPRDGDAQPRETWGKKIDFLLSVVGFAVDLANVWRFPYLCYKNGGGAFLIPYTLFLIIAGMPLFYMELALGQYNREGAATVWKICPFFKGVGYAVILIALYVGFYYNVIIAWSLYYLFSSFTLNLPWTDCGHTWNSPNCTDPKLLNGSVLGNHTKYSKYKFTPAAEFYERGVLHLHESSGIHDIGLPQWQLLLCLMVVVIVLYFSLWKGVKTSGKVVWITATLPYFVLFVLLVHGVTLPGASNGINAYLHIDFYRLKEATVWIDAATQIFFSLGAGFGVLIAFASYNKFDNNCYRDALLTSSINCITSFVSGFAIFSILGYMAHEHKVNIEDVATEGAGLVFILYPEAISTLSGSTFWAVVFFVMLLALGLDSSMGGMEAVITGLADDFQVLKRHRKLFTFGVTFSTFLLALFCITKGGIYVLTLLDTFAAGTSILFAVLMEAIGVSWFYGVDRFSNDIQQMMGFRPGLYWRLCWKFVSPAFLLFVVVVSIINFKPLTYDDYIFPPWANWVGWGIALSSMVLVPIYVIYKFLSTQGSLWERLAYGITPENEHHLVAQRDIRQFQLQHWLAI
D(2) dopamine receptor (Homo sapiens), sequence (P14416 whole entry): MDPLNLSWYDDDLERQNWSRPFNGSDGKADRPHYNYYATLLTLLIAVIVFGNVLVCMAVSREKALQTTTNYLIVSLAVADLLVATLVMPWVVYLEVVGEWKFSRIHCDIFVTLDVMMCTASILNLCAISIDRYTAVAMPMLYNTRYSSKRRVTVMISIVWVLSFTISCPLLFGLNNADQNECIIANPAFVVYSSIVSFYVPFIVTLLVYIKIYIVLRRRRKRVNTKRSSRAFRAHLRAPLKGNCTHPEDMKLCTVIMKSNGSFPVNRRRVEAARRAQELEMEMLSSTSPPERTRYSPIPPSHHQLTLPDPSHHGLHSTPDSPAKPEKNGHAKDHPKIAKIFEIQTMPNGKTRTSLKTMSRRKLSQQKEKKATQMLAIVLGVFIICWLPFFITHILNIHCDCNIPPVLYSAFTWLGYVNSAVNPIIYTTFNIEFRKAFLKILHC
Histamine H3 receptor (Homo sapiens), sequence (Q9Y5N1 whole entry): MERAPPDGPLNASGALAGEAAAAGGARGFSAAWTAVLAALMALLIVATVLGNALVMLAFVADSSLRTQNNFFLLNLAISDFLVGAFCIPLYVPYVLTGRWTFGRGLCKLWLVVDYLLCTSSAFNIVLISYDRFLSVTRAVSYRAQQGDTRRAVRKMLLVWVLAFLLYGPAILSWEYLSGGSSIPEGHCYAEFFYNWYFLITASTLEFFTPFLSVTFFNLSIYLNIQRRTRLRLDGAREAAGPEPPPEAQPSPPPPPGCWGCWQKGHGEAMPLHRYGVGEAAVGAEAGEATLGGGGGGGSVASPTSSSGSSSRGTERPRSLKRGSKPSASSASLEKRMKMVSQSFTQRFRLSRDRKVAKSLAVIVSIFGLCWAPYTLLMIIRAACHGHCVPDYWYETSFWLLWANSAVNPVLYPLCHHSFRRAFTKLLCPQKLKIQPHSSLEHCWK
5-hydroxytryptamine receptor 1B (Homo sapiens), sequence (P28222 whole entry): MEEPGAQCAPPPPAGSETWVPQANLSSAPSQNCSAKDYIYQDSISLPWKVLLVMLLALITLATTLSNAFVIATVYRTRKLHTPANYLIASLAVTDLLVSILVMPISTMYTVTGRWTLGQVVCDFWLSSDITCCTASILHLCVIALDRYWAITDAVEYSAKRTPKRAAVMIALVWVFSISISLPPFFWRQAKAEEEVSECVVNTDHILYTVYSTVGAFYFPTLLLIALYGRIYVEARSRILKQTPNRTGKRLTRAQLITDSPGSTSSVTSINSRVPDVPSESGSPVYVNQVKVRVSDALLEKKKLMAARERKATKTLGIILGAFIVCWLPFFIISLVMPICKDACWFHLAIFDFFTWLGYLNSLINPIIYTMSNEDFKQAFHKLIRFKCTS

SMILES | inhibition [1] [%] | inhibition [2] [%] | inhibition [3] [%] | inhibition [4] [%] | inhibition [5] [%] | inhibition [6] [%] | inhibition [7] [%] | inhibition [8] [%] | inhibition [9] [%] | inhibition [10] [%] | inhibition [11] [%] | inhibition [12] [%] | inhibition [13] [%] | inhibition [14] [%] | inhibition [15] [%]
C[C@H](CO)Nc1nc(SCc2cccc(Cl)c2F)nc2[nH]c(=O)sc12 | 5.16 | 40 | 1.74 | -7.53 | -1.75 | -0.1 | 15.8 | 15 | 8.96 | – | – | – | – | – | –
COc1ccc(OC(F)(F)F)cc1CN[C@H]1CCCN[C@H]1c1ccccc1 | – | 42.3 | 38.8 | – | 16.6 | -2.31 | 59.9 | 58.5 | 57.6 | 10 | 9.77 | -2.15 | 1.14 | 22.6 | 0.54
C[C@@H](NCCc1ccc(O)cc1)[C@@H](O)c1ccc(O)cc1 (relative stereo) | 0.59 | 8.2 | 52.3 | – | 23.8 | 33 | 75 | -0.38 | 39.6 | 2.73 | 23.6 | -1.86 | 5.86 | 51.8 | 5.66
CCCCN(CC)c1nc(C)nc2c1c(C)cn2-c1c(C)cc(C)cc1C | -0.29 | 20.9 | 2.76 | – | 4.03 | – | 28.8 | -7.17 | 36 | -9.74 | -1.9 | – | 2.86 | -0.04 | 39.7
COc1ccc(S(=O)(=O)c2cc(OC)ccc2S(=O)(=O)c2ccc([C@H](C)NS(C)(=O)=O)cc2)cc1 | – | 15.6 | -7.38 | – | 1.18 | -3.37 | 23.1 | 18.7 | 18.8 | -1.73 | 7.85 | 58.7 | – | -0.68 | 0.09
CCCCCNC(=O)NS(=O)(=O)c1cc([N+](=O)[O-])ccc1NC1CCCCC1 | 11.4 | -2.95 | 85.4 | – | 7.7 | 4.78 | 16 | 11.4 | 26.3 | 0.02 | -0.86 | – | 16.9 | 83.9 | -2.94
CC[C@@H]1CN2C(=O)N(C)c3nc(-c4ccccc4)[nH]c3C2=N1 | -5.22 | 0.52 | -6.29 | 21.6 | – | – | 64.2 | 14.2 | 0.34 | 6.19 | -1.57 | 10.4 | -3.92 | 19.5 | -5.85
O=c1ccn([C@@H]2O[C@H](COP(=O)(O)OP(=O)(O)O)[C@@H](O)[C@H]2O)c(=O)[nH]1 | 7.28 | -7.58 | 21.1 | – | 14.8 | 9.94 | 4.23 | 3.57 | 6.84 | 1.75 | -6.08 | – | 7.98 | 13.7 | -3.44
Cc1cc(C(=O)N2Cc3cnn(C)c3Nc3ccccc32)ccc1CNC(=O)N1CCC[C@H]1C(=S)N1CCCN(C)CC1 | – | 46.9 | -2.9 | 0.75 | 5.64 | 63 | -7.44 | -8.65 | 19.8 | 20.7 | -5.77 | – | – | – | 2.87
CCCCCNC(=N)N/N=C/c1c[nH]c2ccc(OC)cc12 | 19 | 23.9 | 57.7 | 93.6 | 67.3 | 0.53 | 96.6 | 92.8 | 69.1 | 96.3 | 94.1 | 87.3 | 27.9 | – | 69
CSc1ccc(C(=O)N[C@@H]2CCCC[C@@H]2NC(=O)CNC(=O)c2cc(C(F)(F)F)ccc2NC(=O)NC(C)C)cc1 | 4.61 | 28.4 | 13.7 | 2.72 | 45.7 | 6.91 | 22.2 | 33.2 | 28.2 | – | – | 3.27 | – | – | 10.8
COc1ccc(/C=C/CCCCOc2ccc(C(=O)c3cccc(C(=O)O)c3)cc2CCC(=O)O)cc1 | 10.8 | 21.3 | 11.1 | -2.54 | 28.2 | – | 11.6 | 3.04 | 23.6 | 29.9 | 1.56 | – | 4.74 | -6.68 | 29.1
CCCCCCCCCCCCCCCCOC[C@H](COP(=O)([O-])OCC[N+](C)(C)C)OC(C)=O | -0.67 | 4.45 | 0.76 | -1.59 | 7.75 | -0.21 | 7.97 | 67.9 | – | 13.9 | 3.24 | 16.4 | – | – | 68.8
